# Data reported in article PMC7782793, “Hydroxamic acid-modified peptide microarrays for profiling isozyme-selective interactions and inhibition of histone deacetylases” (Nature Communications, 2021).
# Values joined by “and” are separate entries in the source; they are usually repeats but may differ in a detail not shown here. Equal values may be shown once. Marks after values point to notes of the source that are not given here. Non-standard residues stand in square brackets, D forms with d. Residues, ends and D or L forms follow the SMILES beside them. *: point of attachment. Asu = N[C@@H](CCCCCC(=O)O)C(=O)O; NHOH = ON*
# Legend:
# HDAC2 [1] = biological target: T1, HDAC2 (Homo sapiens, UniProt Q92769); test: Recombinant HDAC µSPOT microarray binding assay;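 note: Cellulose-bound peptide spots on slides incubated with six HDAC enzyme concentrations, binding intensity read, four-parameter variable-slope fit, EC50 is enzyme concentration giving half-maximal binding, in HEPES buffer pH 7.4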
# T1 construct: HDAC2 (full length, C-terminal His tag, BPS Bioscience, cat. #: 50002); purchased BPS Bioscience 50002
# T1 sequence (Q92769 whole entry): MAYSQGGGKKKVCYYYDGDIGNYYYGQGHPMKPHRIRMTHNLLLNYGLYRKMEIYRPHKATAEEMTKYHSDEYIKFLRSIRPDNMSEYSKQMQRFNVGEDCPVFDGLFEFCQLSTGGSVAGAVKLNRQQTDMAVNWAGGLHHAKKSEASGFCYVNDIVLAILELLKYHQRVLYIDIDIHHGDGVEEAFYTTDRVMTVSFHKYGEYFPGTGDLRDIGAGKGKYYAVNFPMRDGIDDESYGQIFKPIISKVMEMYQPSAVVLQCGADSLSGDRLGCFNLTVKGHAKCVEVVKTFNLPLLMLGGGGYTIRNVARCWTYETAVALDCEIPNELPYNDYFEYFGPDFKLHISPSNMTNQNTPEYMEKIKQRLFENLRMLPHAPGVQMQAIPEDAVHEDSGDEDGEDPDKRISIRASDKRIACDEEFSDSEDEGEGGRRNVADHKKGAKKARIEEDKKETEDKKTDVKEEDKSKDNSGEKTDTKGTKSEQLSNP
# HDAC3/NCoR2 = biological target: T2, HDAC3/NCoR2 (Homo sapiens, UniProt O15379); test: Recombinant HDAC µSPOT microarray binding assay;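 note: peptide spots on cellulose slides incubated with rising HDAC enzyme concentrations, imaged together, four-parameter logistic fit, EC50 is enzyme concentration giving half-maximal binding signal, two experiments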
# T2 construct: HDAC3/NCoR2 (full length, C-terminal His tag, NCoR2 N-terminal GST tag); purchased BPS Bioscience 50003
# T2 sequence (O15379 whole entry): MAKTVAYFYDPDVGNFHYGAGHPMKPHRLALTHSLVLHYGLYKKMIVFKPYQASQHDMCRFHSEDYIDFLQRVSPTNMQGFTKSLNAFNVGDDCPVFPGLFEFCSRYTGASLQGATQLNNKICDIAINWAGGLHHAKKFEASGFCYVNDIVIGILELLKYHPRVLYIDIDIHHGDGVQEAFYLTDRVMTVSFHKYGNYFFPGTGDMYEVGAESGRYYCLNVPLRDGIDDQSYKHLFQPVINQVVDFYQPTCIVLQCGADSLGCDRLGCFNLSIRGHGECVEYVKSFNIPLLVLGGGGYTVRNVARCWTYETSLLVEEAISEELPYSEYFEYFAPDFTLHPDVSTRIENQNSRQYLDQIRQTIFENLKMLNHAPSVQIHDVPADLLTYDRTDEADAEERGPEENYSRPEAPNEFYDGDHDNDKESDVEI
# T2 sequence (Q9Y618 389-480 partner limits assumed): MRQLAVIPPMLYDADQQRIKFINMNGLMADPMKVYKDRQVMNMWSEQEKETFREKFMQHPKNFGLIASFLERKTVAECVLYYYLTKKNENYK
# Procedure: (§1) Experiments were performed twice, data were obtained with Array Analyze software (Active Motif), and data analysis and representation were performed with the GraphPad Prism 7 software. Outliers were curated manually and data were fitted to nonlinear regression [log(agonist) vs. response—variable slope (four parameters)]. […] Non-sigmoidal curves were denoted as not determined (N.D.) The pEC50 values were determined as the concentration of HDAC enzyme required for half-maximal binding signal.
# HDACs 1‒3 and 8 = test: HDAC inhibition assays, statements across several class I isozymes; type: biochemical, human; settings: across the HDACs named in the sentence
# HDAC4 = biological target: T3, HDAC4 (Homo sapiens, UniProt P56524); test: HDAC inhibition assay (fluorogenic, Ac-Leu-Gly-Lys(Tfa)-AMC); type: biochemical; settings: 2 internal replicates
# T3 construct: purchased BPS Bioscience 50004
# T3 sequence (P56524 627-1084): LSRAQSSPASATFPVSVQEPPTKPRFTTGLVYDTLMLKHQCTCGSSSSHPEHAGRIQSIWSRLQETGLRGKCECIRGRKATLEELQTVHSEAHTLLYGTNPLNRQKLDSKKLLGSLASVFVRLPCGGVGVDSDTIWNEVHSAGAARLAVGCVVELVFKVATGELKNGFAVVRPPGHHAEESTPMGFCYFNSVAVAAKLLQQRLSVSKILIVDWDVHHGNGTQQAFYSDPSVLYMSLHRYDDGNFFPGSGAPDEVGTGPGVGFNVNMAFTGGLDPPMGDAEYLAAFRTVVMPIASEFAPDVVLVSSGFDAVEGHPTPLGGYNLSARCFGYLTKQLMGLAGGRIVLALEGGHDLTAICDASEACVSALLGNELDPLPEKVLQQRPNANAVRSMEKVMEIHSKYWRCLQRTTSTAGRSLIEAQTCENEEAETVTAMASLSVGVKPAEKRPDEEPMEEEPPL
# HDAC1 [2] = biological target: T4, HDAC1 (Homo sapiens, UniProt Q13547); test: HDAC inhibition assay (fluorogenic, Ac-Leu-Gly-Lys(Ac)-AMC); type: biochemical; settings: for HDAC1 dose-response data (relative enzyme activity), Fig. 6 + S. Fig. 10: duplicate columns
# T4 construct: HDAC1 (full length, C-terminal His tag, C-terminal FLAG tag, BPS Bioscience, cat. #: 50051); FLAG (C); purchased BPS Bioscience 50051
# T4 sequence (Q13547 whole entry): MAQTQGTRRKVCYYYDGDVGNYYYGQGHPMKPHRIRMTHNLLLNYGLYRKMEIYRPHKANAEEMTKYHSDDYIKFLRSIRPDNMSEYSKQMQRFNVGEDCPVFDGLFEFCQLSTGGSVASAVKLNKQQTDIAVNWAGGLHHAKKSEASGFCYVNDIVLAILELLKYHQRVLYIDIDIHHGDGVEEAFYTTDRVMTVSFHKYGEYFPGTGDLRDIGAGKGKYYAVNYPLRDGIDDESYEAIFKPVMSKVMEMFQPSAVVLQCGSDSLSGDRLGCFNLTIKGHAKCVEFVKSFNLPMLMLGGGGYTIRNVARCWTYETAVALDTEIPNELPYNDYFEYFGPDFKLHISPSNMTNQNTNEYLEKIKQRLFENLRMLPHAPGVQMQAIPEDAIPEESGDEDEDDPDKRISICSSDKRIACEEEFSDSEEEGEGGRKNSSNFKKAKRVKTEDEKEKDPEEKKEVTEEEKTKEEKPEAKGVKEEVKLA
# HDAC6 = biological target: T5, HDAC6 (Homo sapiens, UniProt Q9UBN7); test: as above; type: biochemical; settings: HDAC6, replicates
# T5 construct: HDAC6 (full length, BPS Bioscience, cat. #: 50056); purchased BPS Bioscience 50056
# T5 sequence (Q9UBN7 1-1215): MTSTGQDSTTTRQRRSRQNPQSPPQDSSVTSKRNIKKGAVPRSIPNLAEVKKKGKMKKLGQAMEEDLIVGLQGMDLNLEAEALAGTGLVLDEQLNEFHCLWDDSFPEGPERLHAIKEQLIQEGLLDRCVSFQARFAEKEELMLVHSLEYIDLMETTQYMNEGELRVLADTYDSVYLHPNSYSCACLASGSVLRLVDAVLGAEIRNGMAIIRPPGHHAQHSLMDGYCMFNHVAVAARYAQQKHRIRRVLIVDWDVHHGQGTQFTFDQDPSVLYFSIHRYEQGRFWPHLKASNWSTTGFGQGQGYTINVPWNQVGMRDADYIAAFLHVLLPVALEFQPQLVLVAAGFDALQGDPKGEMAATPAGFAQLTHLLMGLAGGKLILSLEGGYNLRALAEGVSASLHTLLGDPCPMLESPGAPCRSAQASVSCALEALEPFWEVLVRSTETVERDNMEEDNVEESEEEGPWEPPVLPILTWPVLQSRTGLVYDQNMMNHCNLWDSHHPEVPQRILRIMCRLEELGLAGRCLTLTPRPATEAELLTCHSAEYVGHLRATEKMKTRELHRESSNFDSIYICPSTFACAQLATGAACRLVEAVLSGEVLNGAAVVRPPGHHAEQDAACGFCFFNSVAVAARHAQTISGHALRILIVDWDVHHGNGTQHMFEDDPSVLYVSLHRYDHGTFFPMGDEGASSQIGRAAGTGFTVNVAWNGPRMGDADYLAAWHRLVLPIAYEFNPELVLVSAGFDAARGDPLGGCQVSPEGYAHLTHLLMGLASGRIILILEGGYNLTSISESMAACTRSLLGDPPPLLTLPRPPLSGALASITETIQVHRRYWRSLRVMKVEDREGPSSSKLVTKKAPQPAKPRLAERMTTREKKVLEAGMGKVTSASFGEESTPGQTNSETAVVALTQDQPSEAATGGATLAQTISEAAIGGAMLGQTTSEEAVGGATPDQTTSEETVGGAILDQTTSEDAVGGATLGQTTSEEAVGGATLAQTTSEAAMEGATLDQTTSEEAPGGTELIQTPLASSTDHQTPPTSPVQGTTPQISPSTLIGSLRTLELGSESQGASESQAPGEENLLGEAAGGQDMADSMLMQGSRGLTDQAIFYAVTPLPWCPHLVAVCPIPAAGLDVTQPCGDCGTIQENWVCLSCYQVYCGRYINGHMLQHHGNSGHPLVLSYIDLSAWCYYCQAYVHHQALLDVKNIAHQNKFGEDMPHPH
# HDAC2 [3] = biological target: T1, HDAC2; test: as above; type: biochemical; settings: for HDAC2 dose-response data (relative enzyme activity), Fig. 6 + S. Fig. 10: duplicate columns
# HDAC8 [4] = biological target: T6, HDAC8 (Homo sapiens, UniProt Q9BY41); test: HDAC inhibition assay (fluorogenic, Ac-Leu-Gly-Lys(Tfa)-AMC); type: biochemical; settings: for HDAC8 dose-response data (relative enzyme activity, replicate values), Fig. 6 + S. Fig. 10: two replicate columns per inhibitor; for HDAC8 dose-response data (relative enzyme activity), Fig. 6 + S. Fig. 10: duplicate columns
# T6 construct: HDAC8 (full length, C-terminal His tag, BPS Bioscience, cat. #: 50008); purchased BPS Bioscience 50008
# T6 sequence (Q9BY41 1-377): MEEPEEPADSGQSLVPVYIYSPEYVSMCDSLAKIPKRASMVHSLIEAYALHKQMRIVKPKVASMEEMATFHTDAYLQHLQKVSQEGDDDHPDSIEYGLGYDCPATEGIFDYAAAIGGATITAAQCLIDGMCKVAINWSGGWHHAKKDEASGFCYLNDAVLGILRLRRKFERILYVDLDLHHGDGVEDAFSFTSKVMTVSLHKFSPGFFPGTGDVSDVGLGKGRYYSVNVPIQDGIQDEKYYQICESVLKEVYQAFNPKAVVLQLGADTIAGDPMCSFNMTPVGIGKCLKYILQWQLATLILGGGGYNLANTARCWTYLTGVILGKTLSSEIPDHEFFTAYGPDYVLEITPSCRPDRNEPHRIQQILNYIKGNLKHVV
# HDAC8 [5] = biological target: T6, HDAC8; test: Recombinant HDAC µSPOT microarray binding assay
# Procedure: as §1
# HDAC1 [6] = biological target: T4, HDAC1; test: Recombinant HDAC µSPOT microarray binding assay
# [7] = log[inhibitor(M)] -10,5850266520292*, whole line marked with asterisks
structure (smiles),measurement,setting,value
CC(=O)N1CCC[C@H]1C(=O)N[C@@H](CCCNC(=N)N)C(=O)N[C@@H](CCCCN)C(=O)N[C@@H](CCC(N)=O)C(=O)N[C@@H](CC(C)C)C(=O)N[C@@H](C)C(=O)N[C@H](C(=O)N[C@@H](CCCCN)C(=O)N[C@@H](C)C(=O)N[C@@H](C)C(=O)N[C@@H](CCCNC(=N)N)C(=O)N[C@@H](CCCCCC(=O)NO)C(=O)N[C@@H](CO)C(=O)N[C@@H](C)C(=O)N1CCC[C@H]1C(=O)N[C@@H](C)C(=O)N[C@@H](Cc1c[nH]c2ccccc12)C(N)=O)[C@@H](C)O [14a] (Ac-PRKQLATKAAR[Asu](NHOH)SAPAW-NH2),EC50,HDAC2 [1],2.82 nM
same,EC50,HDAC3/NCoR2,2.95 nM
same,inhibitory potency in words,HDACs 1‒3 and 8,inhibited all four isozymes with similar potency
same,residual enzymatic activity relative to control wells,HDAC4; inhibitor 5 µM,82.79
same,remaining activity at 5 µM,"HDAC4; inhibitor 5 µM, read-out: residual enzymatic activity relative to control wells",91.8%
same,residual enzymatic activity relative to control wells,HDAC4; inhibitor 50 µM,33.99
same,remaining activity at 50 µM,"HDAC4; inhibitor 50 µM, read-out: residual enzymatic activity relative to control wells",41.7%
same,Ki,HDAC1 [2],24.7 ± 0.5 nM
same,"HDAC1 dose-response data (relative enzyme activity), Fig. 6 + S. Fig. 10",HDAC1 [2]; log[inhibitor(M)] -5,15.0147 and 10.9187
same,"HDAC1 dose-response data (relative enzyme activity), Fig. 6 + S. Fig. 10",HDAC1 [2]; log[inhibitor(M)] -5.69897,14.0922 and 20.0402
same,"HDAC1 dose-response data (relative enzyme activity), Fig. 6 + S. Fig. 10",HDAC1 [2]; log[inhibitor(M)] -6.39794,32.9512 and 39.8845
same,"HDAC1 dose-response data (relative enzyme activity), Fig. 6 + S. Fig. 10",HDAC1 [2]; log[inhibitor(M)] -7.79588,81.8715 and 100.09
same,"HDAC1 dose-response data (relative enzyme activity), Fig. 6 + S. Fig. 10",HDAC1 [2]; log[inhibitor(M)] -8.49485,94.0176 and 111.23
same,"HDAC1 dose-response data (relative enzyme activity), Fig. 6 + S. Fig. 10",HDAC1 [2]; log[inhibitor(M)] -9.19382,106.697 and 107.189
same,"HDAC1 dose-response data (relative enzyme activity), Fig. 6 + S. Fig. 10",HDAC1 [2]; log[inhibitor(M)] -9.89279,102.41 and 107.234
same,"HDAC1 dose-response data (relative enzyme activity), Fig. 6 + S. Fig. 10",HDAC1 [2]; [7],"103,6577* and 97,95181*"
same,residual enzymatic activity relative to control wells,HDAC6; log[inhibitor(M)] -4.30103,0.91 and 1.08
same,residual enzymatic activity relative to control wells,HDAC6; log[inhibitor(M)] -5,1.61 and 1.34
same,residual enzymatic activity relative to control wells,HDAC6; log[inhibitor(M)] -5.69897,2.69 and 2.19
same,residual enzymatic activity relative to control wells,HDAC6; log[inhibitor(M)] -6.39794,9.28 and 7.48
same,residual enzymatic activity relative to control wells,HDAC6; log[inhibitor(M)] -7.09691,29.33 and 24.37
same,residual enzymatic activity relative to control wells,HDAC6; log[inhibitor(M)] -7.79588,61.34 and 57.66
same,residual enzymatic activity relative to control wells,HDAC6; log[inhibitor(M)] -8.49485,91.27 and 83.89
same,residual enzymatic activity relative to control wells,HDAC6; log[inhibitor(M)] -9.19382,101.6 and 95.57
same,residual enzymatic activity relative to control wells,HDAC6; log[inhibitor(M)] -9.89279,101.56 and 98.95
same,residual enzymatic activity relative to control wells,HDAC6; log[inhibitor(M)] -10.585,"102,36* and 98,9*"
same,"HDAC2 dose-response data (relative enzyme activity), Fig. 6 + S. Fig. 10",HDAC2 [3]; log[inhibitor(M)] -5,11.6652 and 17.3045
same,"HDAC2 dose-response data (relative enzyme activity), Fig. 6 + S. Fig. 10",HDAC2 [3]; log[inhibitor(M)] -5.69897,34.222 and 35.4537
same,"HDAC2 dose-response data (relative enzyme activity), Fig. 6 + S. Fig. 10",HDAC2 [3]; log[inhibitor(M)] -7.79588,103.08 and 94.3091
same,"HDAC2 dose-response data (relative enzyme activity), Fig. 6 + S. Fig. 10",HDAC2 [3]; [7],"107,4969* and 95,99841*"
same,Ki,"HDAC2 [3]; resynthesized peptide in solution, Cheng-Prusoff, n = 2",98 ± 1 nM
same,Ki,HDAC8 [4],55 ± 0.7 nM
same,"HDAC8 dose-response data (relative enzyme activity, replicate values), Fig. 6 + S. Fig. 10",HDAC8 [4]; Inhibitor conc [M] -8.49485 (log),89.9056 and 98.262
same,"HDAC8 dose-response data (relative enzyme activity, replicate values), Fig. 6 + S. Fig. 10",HDAC8 [4]; Inhibitor conc [M] -9.19382 (log),96.4725 and 98.8615
same,"HDAC8 dose-response data (relative enzyme activity, replicate values), Fig. 6 + S. Fig. 10",HDAC8 [4]; Inhibitor conc [M] given as -7.09691 (log),43.1119 and 55.3592
same,"HDAC8 dose-response data (relative enzyme activity, replicate values), Fig. 6 + S. Fig. 10",HDAC8 [4]; Inhibitor conc [M] given as -7.79588 (log),72.8593 and 80.9184
same,"HDAC8 dose-response data (relative enzyme activity, replicate values), Fig. 6 + S. Fig. 10",HDAC8 [4]; Inhibitor conc [M] given as -9.89279 (log),99.4729 and 100.504
same,"HDAC8 dose-response data (relative enzyme activity), Fig. 6 + S. Fig. 10",HDAC8 [4]; Inhibitor conc [M] -4.30103,2.477 and 2.544
same,"HDAC8 dose-response data (relative enzyme activity), Fig. 6 + S. Fig. 10",HDAC8 [4]; Inhibitor conc [M] -5,8.237 and 8.756
same,"HDAC8 dose-response data (relative enzyme activity), Fig. 6 + S. Fig. 10",HDAC8 [4]; Inhibitor conc [M] -5.69897,16.1631 and 21.2375
same,"HDAC8 dose-response data (relative enzyme activity), Fig. 6 + S. Fig. 10",HDAC8 [4]; Inhibitor conc [M] -6.39794,27.7385 and 36.3881
same,HDAC8 inhibition in words,HDAC8 [4]; in solution,robust nanomolar potency
same,EC50,HDAC8 [5],3.02 nM
same,EC50,HDAC1 [6],9.12 nM
